Experimental data: patent US20080234351A1, “Combination Methods for Preserving Visual Acuity” (priority 2005, published 2008)

Tested on: patients with type 1 or type 2 diabetes mellitus and moderately severe to very severe NPDR
Assay: Clinical Study MBCM(b): Phase 3, randomized, double-masked, placebo-controlled study; frequency of sustained moderate visual loss (SMVL)
Type: in vivo, humans
Conditions: 32 mg/d orally, SMVL = ≧15 letters loss in best-corrected ETDRS visual acuity for 6-month period (30 to 36 months)
Text: MBCM(b) is a Phase 3, multicenter, parallel, randomized, double-masked, placebo-controlled study. Language from the MBCM(b) protocol is included below.
Patients with type 1 or type 2 diabetes mellitus and an Early Treatment Diabetic Retinopathy Study (ETDRS) retinopathy level ≧47A and ≦53E in at least one eye will be eligible to participate in the study. Visual acuity (best-corrected) will be assessed using the ETDRS visual acuity protocol. Retinopathy will be assessed using ETDRS 7 standard field 30 degree color stereoscopic fundus photography. The photographs will be independently assessed by the University of Wisconsin Fundus Photograph Reading Center.
Seventy sites have enrolled patients over a 15-month period. Of the 685 patients enrolled, it is expected that approximately 580 patients will complete the study. […]
Patients may be included in the study only if they meet all of the following general criteria and have at least one eye that meets all of the eye-specific criteria: • [1] […] ETDRS retinopathy level ≧47A and ≦53E without previous panretinal photocoagulation as determined using ETDRS 7 standard field 30-degree color stereoscopic fundus photography. • [3] […] Best-corrected visual acuity score of 45 or more letters as measured using the ETDRS visual acuity protocol (ETDRS Study report number 1, Arch. Opthalmol., 103:1796-1806, 1985) in an eye that has level ≧47A and ≦53E retinopathy. […]

CN(C)C[C@@H]1CCn2cc(c3ccccc32)C2=C(C(=O)NC2=O)c2cn(c3ccccc23)CCO1 [RBX, (S)-9-((dimethylamino)methyl)-6,7,10,11-tetrahydro-9H,18H-5,21:12,17-dimethenodibenzo(e,k)pyrrolo(3,4-h)(1,4,13)oxadiazacyclohexadecine-18,20(19H)-dione]
% Of Patients with SMVL, Focal PC (patients with focal photocoagulation): 8.6%
% Of Patients with SMVL, No Focal PC (patients without focal photocoagulation): 2.7%
